Reference: the NIST ThermoML archive (doi:10.1021/je050039p)
Numbers after ± are expanded uncertainties.

Conditions: Crystal 1; visual observation

Row | Normal melting temperature [°C] | Compound
1 | -4.14 ± 0.5 | CCCCCCCCCCCCC [tridecane]
2 | 5.90 ± 0.5 | c1ccccc1 [benzene]
